Experimental data taken from publication PMC10903983, “Inducing mitochondriopathy-like damages by transformable nucleopeptide nanoparticles for targeted therapy of bladder cancer” (National Science Review, 2024).
Non-standard residues stand in square brackets, D forms with d. Residues, ends and D or L forms follow the SMILES beside them. *: point of attachment. Coumarin3carbonyl(7-OH) = O=C(c1cc2ccc(O)cc2oc1=O)*; Acetyl(thymin-1-yl) = Cc1cn(CC(=O)*)c(=O)[nH]c1=O; PEG8 = NCCOCCOCCOCCOCCOCCOCCOCCOCCC(=O)O

Columns and labels:
T24 cells = test: CCK-8 cytotoxicity assay, T24 cells; type: cell-based, human; conditions: 48 h; for IC50: human
healthy BALB/c nude mice = test: In vivo toxicology evaluation in healthy mice; conditions: N = 4
T24 xenograft mice [1] = test: In vivo / ex vivo dose-dependent fluorescence imaging in T24 xenograft mice; conditions: i.v., 500 μM or 250 μM in 200 μL PBS, 1-96 hours, N = 3
EJ cells = type: cell-based; conditions: human, 48 h
T24 xenograft mice [2] = test: In vivo antitumor evaluation, T24 subcutaneous xenograft model; conditions: i.v. 500 μM in 200 μL PBS six times
Procedure: 3 mm at 8 h post-treatment. The fragments were then fixed with 2.5% glutaraldehyde at 4°C overnight and treated with 1% […] for 2 h after being rinsed thrice with PBS.
Subsequently, graded concentrations of alcohol solutions (50, 70, 80, 90, 100, 100 and 100%) were utilized for graded dehydration (with 10 minutes each). Next, tumor fragments were exposed to a mixture of alcohol/acetone (1:1) for 10 min, a mixture of acetone/EPON-812 (1:1) for 1 h and a mixture of acetone/EPON-812 (1:2) for 1 h. Pure EPON-812 was then utilized to further infiltrate the tumor fragments overnight at 4°C, after which it was cured at 37, 45 and 60°C for 24 h respectively. Finally, the morphology of NLS-FF-T in the tumor slice was observed by bio-Transmission Electron Microscope (bio-TEM) after being stained with 2% uranyl acetate and 3% lead citrate.
To further verify the therapeutic potency of the IAS system, a T24 xenograft mouse […]
When the average tumor volume reached 100-200 mm3, the T24 tumor-bearing mice were […]
The individual tumor growth and body weight were measured every 2 d for analysis, with tumor volume calculated as follows: tumor width2 × tumor length × 0.5. […]
At the end of the treatment period, T24 tumor tissues were collected and washed thrice with PBS. […] The ATP levels were then measured according to the manufacturer’s instructions using an ATP Content Assay Kit. […]

RT-112 cells = type: cell-based; conditions: human, 48 h
[3] = ATP sequestration: ATP hydrolysis by alkaline phosphatase (ALP); type: biochemical; conditions: ATP 200 μM, ALP 0.5 U/mL, DEA buffer 10 mM pH 9.8, 37 °C, bioluminescence, blank control 13%
SV-HUC-1 cells = test: Toxicity assay towards SV-HUC-1 normal bladder cells; type: cell-based; conditions: viability, different concentrations, 48 h
[4] = test system: T24 xenograft mice (incomplete tumor resection); conditions: after intravenous administration, tumor-recurrence model
Procedure: In vivo antitumor evaluation of IAS system in regrowth of residual tumor model
To establish the T24 xenograft mouse model, BALB/c nude mice (approximately 6-8
weeks, weighing 16-18 g) were subcutaneously injected with T24 cells (5 × 106) suspended
in 100 μL Matrigel. The mice were randomly divided into five groups, with six mice in each
group. Both body weight and tumor volume were measured for analysis. At 21 d after
inoculation, tumor tissues of approximately 300-500 mm3 were resected, leaving a residual
tumor of approximately 30-50 mm3. After that, the T24 xenograft mice were intravenously
administered with PBS, NLS-FF, FF-T, NLS-T and NLS-FF-T (500 μM in 200 μL PBS)
every two days on day 21, 23, 25, 27, 29 and 31. The tumor volume was calculated using the formula: tumor width2 × tumor length × 0.5.
For two-group comparisons, statistical analysis was performed using one-way ANOVA
followed by post hoc Tukey's test. The GraphPad Prism software 8.0 was used for all

[5] = i.v. 1000, 500 or 250 μM in 200 μL PBS six times

Cc1cn(CC(=O)NCCCC[C@H](NC(=O)c2cc3ccc(O)cc3oc2=O)C(=O)N[C@@H](CC(C)C)C(=O)N[C@H](C(=O)N[C@@H](Cc2ccccc2)C(=O)N[C@@H](Cc2ccccc2)C(=O)NCCOCCOCCOCCOCCOCCOCCOCCOCCC(=O)N[C@H](C(=O)N[C@@H](CCCCN)C(=O)N[C@@H](CCCNC(=N)N)C(=O)N[C@@H](CCCCN)C(=O)N[C@@H](CCCCN)C(=O)N[C@@H](CCCCN)C(=O)N2CCC[C@H]2C(=O)O)C(C)C)C(C)C)c(=O)[nH]c1=O [NLS-FF-T, HCA-K(T)LVFF-PEG-VKRKKKP] ({Coumarin3carbonyl(7-OH)}-K(Acetyl(thymin-1-yl))LVFF[PEG8]VKRKKKP-OH)
IC50 (T24 cells): 34 µM
cytotoxicity against T24 cells compared with T-ATP (T24 cells; viability, different concentrations): significantly higher cytotoxicity against T24 cells than that of T-ATP
histology (H&E) of liver and kidney (healthy BALB/c nude mice; i.v. 1000, 500 or 250 μM in 200 μL PBS six times at 2-day intervals): no signs of histological deterioration or damage
blood biochemistry (ALT, AST, ALP, BUN, CRE) (healthy BALB/c nude mice; [5]): typical ranges
routine blood examination (RBC, WBC, PLT, HGB, NEUT) versus PBS (healthy BALB/c nude mice; [5]): no differences
tumor accumulation and retention (in vivo fluorescence imaging) (T24 xenograft mice [1]): dose-dependent tumor accumulation and long-time tumor retention
IC50 (EJ cells): 32 µM
body weight (T24 xenograft mice [2]): no substantial loss of body weight
IC50 (RT-112 cells): 43.3 µM
ATP remaining after ALP catalytic hydrolysis ([3]; NLS-FF-T nanofibers): 61%
ATP remaining after ALP catalytic hydrolysis ([3]; NLS-FF-T nanoparticle group): 27%
toxicity towards T24 tumor cells versus SV-HUC-1 normal bladder cells (SV-HUC-1 cells): enhanced toxicity towards tumor cells (T24) than that of normal cells (SV-HUC-1)
body weights [4]: no impact

CC(C)C[C@H](NC(=O)[C@H](CCCCN)NC(=O)c1cc2ccc(O)cc2oc1=O)C(=O)N[C@H](C(=O)N[C@@H](Cc1ccccc1)C(=O)N[C@@H](Cc1ccccc1)C(=O)NCCOCCOCCOCCOCCOCCOCCOCCOCCC(=O)N[C@H](C(=O)N[C@@H](CCCCN)C(=O)N[C@@H](CCCNC(=N)N)C(=O)N[C@@H](CCCCN)C(=O)N[C@@H](CCCCN)C(=O)N[C@@H](CCCCN)C(=O)N1CCC[C@H]1C(=O)O)C(C)C)C(C)C [NLS-FF, HCA-KLVFF-PEG-VKRKKKP] ({Coumarin3carbonyl(7-OH)}-KLVFF[PEG8]VKRKKKP-OH)
IC50 (T24 cells): 532 µM
IC50 (EJ cells): 278 µM
IC50 (RT-112 cells): 376 µM

Cc1cn(CC(=O)NCCCC[C@H](NC(=O)c2cc3ccc(O)cc3oc2=O)C(=O)N[C@@H](CC(C)C)C(=O)N[C@H](C(=O)NCCOCCOCCOCCOCCOCCOCCOCCOCCC(=O)N[C@H](C(=O)N[C@@H](CCCCN)C(=O)N[C@@H](CCCNC(=N)N)C(=O)N[C@@H](CCCCN)C(=O)N[C@@H](CCCCN)C(=O)N[C@@H](CCCCN)C(=O)N2CCC[C@H]2C(=O)O)C(C)C)C(C)C)c(=O)[nH]c1=O [NLS-T, HCA-K(T)LV-PEG-VKRKKKP] ({Coumarin3carbonyl(7-OH)}-K(Acetyl(thymin-1-yl))LV[PEG8]VKRKKKP-OH)
IC50 (T24 cells): 119 µM
IC50 (EJ cells): 122 µM
IC50 (RT-112 cells): 107 µM

Cc1cn(CC(=O)NCCCC[C@H](NC(=O)c2cc3ccc(O)cc3oc2=O)C(=O)N[C@@H](CC(C)C)C(=O)N[C@H](C(=O)N[C@@H](Cc2ccccc2)C(=O)N[C@@H](Cc2ccccc2)C(=O)NCCOCCOCCOCCOCCOCCOCCOCCOCCC(=O)NCCOCCOCCOCCOCCOCCOCCOCCOCCC(=O)O)C(C)C)c(=O)[nH]c1=O [FF-T, HCA-K(T)LVFF-PEG2] ({Coumarin3carbonyl(7-OH)}-K(Acetyl(thymin-1-yl))LVFF[PEG8][PEG8]-OH)
IC50 (T24 cells): 408 µM
IC50 (EJ cells): 181 µM
IC50 (RT-112 cells): 356 µM
